Measured values taken from patent publication US11083714B2, “Selective anti-cancer agent effective for prevention and treatment” (Molecular International Research, Inc., priority 2018, dated 2021).

How the values were obtained:
[1] = test system: RPWE-1; test: Cell Proliferation (anti-cancer), RPWE-1; format: cell-based, human
Method: (§1) The primary goal of synthesizing de-ethylflavopereirine (compound 13-9-1) was to generate a different compound that still retains the anti-cancer cell activity of flavopereirine (compound 13-7-2). Comparison of the effects of the two compounds on proliferation of a variety of cancer cells confirmed that this goal was achieved. For example, the effect of de-ethylflavopereirine on two human breast cancer cell lines and two human prostate cancer cell lines were analyzed.

[2] = test system: two human breast cancer cell lines; test: Proliferation of breast cancer cell lines; format: cell-based
Method: as §1

[3] = Toxicity in mice, intravenous administration; format: in vivo; details: 20 mg/kg and 40 mg/kg
Method: At 20 mg/kg and 40 mg/kg doses, intravenous administration of compound 13-9-1 in mice was well-tolerated. The 20 mg/kg dose provides sufficient serum concentration for the compound to exert its anti-tumor effect.
Oral administration was chosen for the mouse experiments because administration is simplified by avoiding the need for tail vein injections.

[4] = test system: OVCAR-5, SHIN-3, OVCAR-8; test: MTT cell viability, ovarian cancer cell lines; format: cell-based, human; details: 48 hr
Method: FIG. 7. Dose-response curves for cell viability of human ovarian cancer cell lines OVCAR-5 (triangles), SHIN-3 (squares), and OVCAR-8 (lozenges) exposed to de-ethylflavopereirine. Cells were cultured in the presence of increasing concentrations of the compound for 48 hr and cell viability was determined by MTT assay. MRC-5 (crosses), an immortalized, normal human […] cell line, was used as a control.
De-ethylflavopereirine was tested for its activity against ovarian, pancreatic, brain, and colon cancer cell lines. […] Cytotoxicity is assayed by reducing a yellow tetrazolium dye, 3-(4,5-dimethylthiazol-2-yl)-2,5-diphenyltetrazolium bromide (MTT), to insoluble purple formazan. The MTT assay is a colorimetric assay for determining the number of viable cells.

[5] = test system: glioblastoma cell lines U-87MG, DBTRG-05MG, A172; test: Glioblastoma cell viability and proliferation assay (ATP); format: cell-based; details: 3 nM to 30 uM, 72 hr
Method: FIG. 9. Glioblastoma in vitro cell viability and proliferation assay after treatment with de-ethylflavopereirine. Glioblastoma cell lines U-87MG, DBTRG-05MG, A172, and AM-38 were tested. Temozolomide, an oral chemotherapy drug known to treat some brain cancers, was used as a control. The concentrations of temozolomide (circles) or compound 13-9-1 (squares) used were 3 nM, 10 nM, 30 nM, 100 nM, 1 uM, 3 uM, 10 uM, and 30 uM. Each of the cell lines was treated with de-ethylflavopereirine for 72 hr before measuring cytotoxicity and inhibition of cell proliferation. Number of viable cells in culture based on quantitation of ATP. IC50 was determined as indicated below each graph.
The dose-response curves for the anti-brain cancer drug temozolomide are shown for comparison.

[6] = test system: HT-29; test: Viability of bioluminescent HT-29 colon cancer cells; format: cell-based, human; details: HT-29, luminescence
From the text: FIG. 10. Dose-response curve for human colon cancer cell line HT-29 exposed to either de-ethylflavopereirine (squares) or Pao pereira plant extract (triangles) containing flavopereirine and at least one other anti-cancer compound, dihydroflavopereirine. The bioluminescent HT-29 cell line was used.
A bioluminescent line was used enabling viability to be assessed by luminescence. In this case, the activity of compound 13-9-1 was compared with a Pao pereira extract containing flavopereirine and at least one other anti-cancer compound.

[7] = test system: PANC-1 cells; test: Tumor formation and growth after inoculation of pretreated PANC-1 cells (FIG. 26); format: in vivo, mice
Method: FIG. 26. Effect of de-ethylflavopereirine on pancreatic cancer formation and growth. […] In the control group (top line of left graph), 86.67% (13/15) of the untreated mice formed tumors. Compound 13-9-1 (10 μM) decreased the rate to 80% (4/5); there was no effect on the time of tumor formation (bottom line of left graph). […] In the control group (top line of left graph), 80% (12/15) of the untreated mice formed tumors. Compound 13-9-1 (10 μM) decreased the tumor formation rate to 60% (3/5); this indicated reduction in tumor formation initiated by pancreatic cancer stem cells (bottom line of left graph). […] In FIG. 26C, after 2×10^4 PANC-1 cells were inoculated, 20% of the mice formed tumors in both the control group (3/15) and the treated group (1/5) at 38 days of observation.
In vivo, cancer stem cells are the primary source of tumor formation and growth. Thus, the rates of tumor formation and growth are indicators of cancer stem cell activity. When animals are inoculated with limited numbers of cancer cells, rates of tumor formation and growth can be accurately measured. It can then be determined whether a prospective agent slows the formation and growth rates of tumors, which is an indication of whether it acts against cancer stem cells. PANC-1 cancer cells were grown in suspension and pretreated with de-ethylflavopereirine at 10 μM concentration before inoculation into mice. As a negative control, PANC-1 cancer cells were not pretreated with the compound. Following inoculation, the rates of tumor formation and growth were measured. • 1) After 10^6 PANC-1 cells were inoculated, tumors formed in 87% of the mice in the control group and 80% of the mice in the treated group. […] De-ethylflavopereirine reduced tumor formation rate to 60%, indicating inhibition of pancreatic cancer stem cells. […] De-Ethylflavopereirine Suppresses PANC-1 Tumor Formation In Vivo: Anti-Cancer Stem Cell Activity

[8] = 1×10^6 PANC-1 cells pretreated at 10 μM
[9] = 2×10^5 PANC-1 cells pretreated at 10 μM

Structure (SMILES): c1ccc2c(c1)[nH]c1c2cc[n+]2ccccc12 [Compound 13-9-1, 12H-indolo[2,3-a]quinolizin-5-ium]
- Growth Inhibition [1]: Yes
- IC50 ([1]; Homo sapiens, after any period of treatment, read-out: Minimum Dose (IC50) needed to decrease growth 50% or greater versus control): 5 µM
- IC50 compared with flavopereirine [2]: same IC50s
- tolerability of intravenous administration [3]: well-tolerated
- cell viability [4]: dose-dependent decrease in cancer cell viability
- glioblastoma cell viability [5]: dose-dependent decrease in glioblastoma cell viability
- activity compared with Pao pereira extract [6]: active at much lower concentrations than the plant extract
- growth of tumors formed [7, 8]: reduced the growth of tumors
- time of tumor formation [7, 8]: no effect
- tumor formation rate (mice that formed tumors) [7, 8]: 80%
- growth of tumors formed ([7]; 1×10^6 PANC-1 cells pretreated at 10 μM, listed as De-ethylflavopereirine): significantly inhibited the growth
- growth of tumors formed ([7]; 2×10^4 PANC-1 cells pretreated at 10 μM): not significantly different
- tumor formation rate (mice that formed tumors) ([7]; 2×10^4 PANC-1 cells pretreated at 10 μM, 38 days): 20%
- growth of tumors formed [7, 9]: significantly reduced tumor growth
- tumor formation rate (mice that formed tumors) [7, 9]: 60%
- growth of tumors formed ([7]; 2×10^5 PANC-1 cells pretreated at 10 μM, listed as De-ethylflavopereirine): slowed the growth rate
